The values below come from patent publication US8293803B2, “Retinoid compounds and their use” (Reinnervate Limited, priority 2006, dated 2012).

SMILES strings stand for the structures.

The nature of series [1]: Stability in D6-DMSO, 3 days dark under air versus fluorescent light (1H NMR). The format is physicochemical. The text has this: FIG. 6 ^1H NMR (500 MHz) spectrum (d 5.40-7.80) of ATRA in D6-DMSO in a glass NMR tube after 3 days in the dark under air (top), versus 3 days exposure to fluorescent light (bottom).
FIG. 7 ^1H NMR (500 MHz) spectrum (d 7.20-8.10) of EC23 (10a(i) (R′═H)) in D6-DMSO in a glass NMR tube after 3 days in the dark under air (top), versus 3 days exposure to fluorescent light (bottom).
In order to study the relative stability of certain synthetic retinoids versus the natural systems, solutions of each were exposed to different environmental conditions and then studied by NMR.

For series [2], the system named is human pluripotent TERA2.cl.SP12 embryonal carcinoma stem cells. The series is described as follows: Flow cytometry of cell surface antigen expression on human pluripotent stem cells. The format is cell-based. The settings on record: 14 day test period; comparable to non-isomerised ATRA. As for the experimental part:
FIG. 8 Flow cytometric analysis of cell surface antigen expression for markers of stem cells (ssea-3, tra-1-60) and differentiated derivatives (vinis-53, a2b5) when cultures of human pluripotent embryonal carcinoma stem cells (TERA2.SP12) exposed to either 10 μM ATRA or 10 μM EC23 (10a(i) (R′═H)).
FIG. 9 Flow cytometric analysis of cell surface antigen expression on human pluripotent TERA2.cl.SP12 embryonal carcinoma stem cells (undiff) and their differentiated derivatives after 7 days exposure to either ATRA; 3Me-CEBX (12); 3Me-EC19 (10b(ii) R′═H); 3Me-EC23 (10b(i) (R′═H)); 4Me-TTN (6b(i)(R′═H)); all used at 1 μM. DMSO was used as a vehicle control.
(§1) The biological activity of compounds 6, 10, 11, 12 and 13 were determined by exposing these molecules at various concentrations to different mammalian stem cell systems, namely (1) human pluripotent stem cells; and (2) rat adult neuroprogenitor cells.
Tissue development by human pluripotent stem cells closely resembles that which occurs during normal embryogenesis in utero and this cell system is a proven and accepted model of cell differentiation (Przyborski et al, Stem Cells Dev., 2004, 13:400-408).
The expression of cell surface antigens that are known to change as these stem cells commit to differentiate, was assessed by flow cytometry.
Flow cytometry was also used to assay for the effect(s) of compounds 6, 10 and (FIGS. 8 and 9).
Background: In flow cytometry, cells or beads pass a laser one at a time.

The test system of series [3] is human pluripotent stem cells. The series is described as follows: Differentiation of human pluripotent stem cells, morphology and immunocytochemistry / immunofluorescent microscopy. Format: cell-based. The settings on record: for formation of neurons: confirmed by immunocytochemistry. The procedure: as §1
Tissue development by human pluripotent stem cells closely resembles that which occurs during normal embryogenesis in utero and this cell system is a proven and accepted model of cell differentiation (Przyborski et al, Stem Cells Dev., 2004, 13:400-408). […]

In series [4] the test system is neuroprogenitor cells derived from the adult rat hippocampus. The series is described as follows: Differentiation of adult neuroprogenitor cells. Format: cell-based. As to conditions: adult rat hippocampal neuroprogenitor cells; β-tubulin-III staining. The procedure: as §1
The biological activity of the synthetic retinoid EC23 (10a(i)) was also evaluated by exposing it to neuroprogenitor cells derived from the adult rat hippocampus. […] Immunocytochemical staining for the marker β-tubulin-III was used to confirm neuronal identity (data not shown).

The next series relates to TERA2.cl.SP12 cells. Kind of series: Proliferation and cytotoxicity in TERA2.cl.SP12 cultures. Format: cell-based, human.
A short description of series [5]: Temperature sensitivity of retinoic acids at 37 °C (HNMR). The settings on record: 37° C. water bath, HNMR peak intensities. Format: physicochemical. As for the experimental part: (§2) In order to test the sensitivity of the natural retinoids, 10 mM samples in either DMSO or deuterochloroform were exposed to either 37° C., laboratory light (approximately 500 lux), white light (approximately 1250 lux) or UV light. Upon isomerisation HNMR spectra of samples were taken and compared to HNMR spectra of pure samples. The % peak intensities from the HNMR spectra were used to quantify levels of the different retinoic acids and any other compounds that may be present.
Temperature sensitivity was tested by placing solutions of retinoic acids in a 37° C. water bath for varying time lengths. After 1 hour at 37° C. approximate levels of the initial retinoic acid were 85% for a 13CRA sample and 100% for an ATRA sample. This decreased to 73% for a 13CRA sample and 86% for an ATRA sample after 24 hours.

Series [6] in a line: Stability at room temperature for 1 week (HNMR). The format is physicochemical. The procedure: as §2
Samples of ATRA and 13CRA, were left at room temperature for 1 week. The degraded solution of 13CRA contained around 78% 13CRA. […] All of the above experiments highlight retinoic acids inherent instability, not only in light, but also at 37° C. and even at room temperature.

Series [7] can be described thus: Photoisomerisation under laboratory light (HNMR). Format: physicochemical. The settings on record: laboratory light (approx. 500 lux), 1 hour and 24 hours. The procedure: as §2
(§3) The sensitivity of retinoic acids to light was tested by placing samples of ATRA, 9CRA and 13CRA in one of three lighting conditions for varying lengths of time. Samples were exposed to either normal laboratory light conditions, white light or UV light. HNMR spectra were then compared to those of pure samples.
The relative ratios of the natural retinoic acid isomers found in samples of ATRA and 13CRA isomerised in lab light for 1 hour and 24 hours can be seen in FIGS. 1 and 2. The new peaks in HNMR spectra increased in size, and so levels of isomerisation products increased over 24 hours but not to any great extent.
Samples of synthetic retinoids 12(ii), 12(i) and 13 were exposed to 1 hour of laboratory light, 1 hour of white light and 1 hour of UV light. HNMR spectra from samples exposed to lab light and white light were identical to those of pure compounds. […]

The nature of series [8]: Photoisomerisation under UV light (HNMR). As to conditions: over 12 hours. The format is physicochemical. As for the experimental part:
as §2, §3
FIGS. 4 and 5 show the relative ratios of the natural retinoic acids found in samples of ATRA and 13CRA isomerised in UV light for 1 hour and 12 hours.
Samples of synthetic retinoids 12(ii), 12(i) and 13 were exposed to 1 hour of laboratory light, 1 hour of white light and 1 hour of UV light. HNMR spectra from samples exposed to lab light and white light were identical to those of pure compounds. […] UV light is emitted at a frequency likely to excite the conjugated double bond region of these synthetic retinoids, resulting in the slight degradation observed. […]

Series [9] is described as follows: Photoisomerisation under white light (HNMR). The format is physicochemical. As for the experimental part:
as §2, §3
Samples of synthetic retinoids 12(ii), 12(i) and 13 were exposed to 1 hour of laboratory light, 1 hour of white light and 1 hour of UV light. HNMR spectra from samples exposed to lab light and white light were identical to those of pure compounds. […] UV light is emitted at a frequency likely to excite the conjugated double bond region of these synthetic retinoids, resulting in the slight degradation observed. 12(ii) and 12(i) were stable under laboratory light and white light. 13 was stable when exposed to all forms of light.

For series [10] the following is noted: ATRA in ethanol, white light, 30 minutes; cited from earlier work.
The subject of the next series is stem cells. The series is described as follows: Modulation of cell differentiation (summary statement). Format: cell-based. As to conditions: conditions not given. The procedure:
(§4) The application of this technology to systems both with and without a methyl group (e.g. in 6a versus 6b), is important because it allows control of relative rotational orientation of the aryl and vinyl groups which has important implications for the control of conformation as a design principle for developing receptor-selective retinoid analogues.
as §1

A short description of series [11]: Stability (summary statement). The format is physicochemical. The settings on record: conditions not given.
Description: as §4

Setting [12] is: 10 μM, 21 days, immunofluorescent microscopy.
Where [13] appears, read: 1 hour, 10 mM in DMSO or deuterochloroform.
The mark [14] stands for this setting: 3 days exposure to fluorescent light, DMSO, NMR.

`CC1(C)CCC(C)(C)c2cc(C#Cc3ccc(C(=O)O)cc3)ccc21` [10a(i), 4-(5,5,8,8-Tetramethyl-5,6,7,8-tetrahydro-naphthalen-2-ylethynyl)benzoic acid]: the “stability by NMR” value in [1] (3 days, dark under air and fluorescent light, DMSO (same conditions as ATRA)) is on record as “completely stable”. Further, in series [2], the “expression of differentiation antigens A2B5 and VINIS-53” value is listed as “marked increases in expression”; the “expression of stem cell markers TRA-1-60 and SSEA-3” value was “suppression”. Moreover, in [3] (setting [12]), the “epithelial plaques (cytokeratin-8)” value is listed as “very few, if any, epithelial plaques”; the “formation of neurons / neuronal differentiation” value is on record as “consisting primarily of cells undergoing neuronal differentiation”; the nestin expression entry was “strong expression for nestin”. In [3] (human pluripotent stem cells), the “behaviour compared with natural ATRA” value is recorded as “essentially identical behaviour to natural ATRA”. The formation of neurons result in [3] (morphology) was “induced the formation of morphologically identifiable neurons”. The differentiation into neurons entry in series [4] is reported as “differentiate into well-defined neurons”.
As for `CC1(C)CCC(C)(C)c2cc(C#Cc3cccc(C(=O)O)c3)ccc21` [10a(ii)], in series [3] (setting [12]), the “cells immuno-positive for Tuj-1 and NF200” value was “only a few cells immuno-positive”; the “epithelial plaques (cytokeratin-8)” value was “large numbers of cytokertin-8 positive epithelial plaques”; the “formation of neurons / neuronal differentiation” value was “formation of very few neurons”; the nestin expression result is recorded as “nestin staining reduced”. In addition, in series [3] (morphology), the “formation of epithelial cells” value is “formation of epithelial cells” and the formation of neurons entry is “Neurons were not identified”.
Consider `CC1(C)CCC(C)(C)c2cc(C#Cc3cccc(C(=O)NO)c3)ccc21` [11a(ii), 3-(5,5,8,8-Tetramethyl-5,6,7,8-tetrahydronaphthalen-2-ylethynyl)benzohydroxamic acid], for which the “cytotoxicity: time to kill the cells” value in the series with TERA2.cl.SP12 cells (TERA2.cl.SP12 cells, described as potent cytotoxicity) is given as no more than 4 days. For the same compound, the “effect on proliferation of the cultures” value in the series on TERA2.cl.SP12 cells (cultures grown in its presence) was “halted proliferation almost instantly”.
Consider `CC1=C(/C=C/C(C)=C/C=C/C(C)=C/C(=O)O)C(C)(C)CCC1` [ATRA, All-trans-retinoic acid], for which the “approximate level of the initial retinoic acid” value (shortened to “approximate level”) in [5] (setting [13]) is roughly 100%. In [5] (24 hours), the “approximate level” value is on record as roughly 86%. Also, in [6], the “content of the initial retinoic acid in the solution” value was determined as 94%. For the same compound, the “relative stability in laboratory light” value in series [7] is given as “marginally more stable than 13CRA”. In addition, the “degradation in UV light” value in series [8] is recorded as “rapidly degraded”. For the same compound, in [9] (white light (approx. 1250 lux), 1 hour), the “level of ATRA” value was 76%. For the same compound, in [9] (white light, 6 hours), the “level of ATRA” value was found to be 43%. Further, the “level of ATRA” value in [9] (white light, 24 hours) is given as 21%. In series [1] (setting [14]), this compound yielded an amount remaining of 37%; an isomerisation and degradation of 63%. In addition, the “stability by NMR” value in [1] (3 days in the dark in air in DMSO) is on record as “reasonably stable”. Also, in series [3] (setting [12]), the “epithelial plaques (cytokeratin-8)” value was “numerous epithelial plaques” and the “formation of neurons / neuronal differentiation” value is “induced the formation of neurons”. Also, in series [4], the differentiation into neurons entry is “primarily form neurons”. Also, in series [10], the “relative concentration of 9, 13-dicis RA in the isomerised ATRA sample” value is 5%; the “relative concentration of 9CRA in the isomerised ATRA sample” value is on record as 10%; the “relative concentration of 11CRA in the isomerised ATRA sample” value was 10%; the “relative concentration of 13CRA in the isomerised ATRA sample” value is listed as 30%. In series [10], the “relative concentration of ATRA in the isomerised ATRA sample” value was 25% and the “relative concentration of an unidentified compound in the isomerised ATRA sample” value is 20%.
Consider `COC(=O)c1cccc(C=C(C)c2ccc3c(c2)C(C)(C)CCC3(C)C)c1` [Compound 6aii, 3-[2-(5,5,8,8-Tetramethyl-5,6,7,8-tetrahydronaphthalen-2-yl)-propenyl]-benzoic acid methyl ester], for which the “efficacy in modulating cell differentiation” value in the series on stem cells is on record as “efficacious in modulating cell differentiation”. Besides, in series [11], the stability entry was “particularly stable”.
Take `CC(=Cc1ccc(C(=O)O)cc1)c1cc2c(cc1C)C(C)(C)CCC2(C)C` [Compound 6bi, 4-[2-(3,5,5,8,8-Pentamethyl-5,6,7,8-tetrahydro-naphthalen-2-yl)propenyl]benzoic acid]: the “efficacy in modulating cell differentiation” value in the series with stem cells was “efficacious in modulating cell differentiation”. The stability entry in [11] is on record as “particularly stable”.
With `CC1=C(/C=C/C(C)=C/C=C/C(C)=C\C(=O)O)C(C)(C)CCC1` [Compound 13CRA, 13-cis-retinoic acid], the “approximate level” value in series [5] (setting [13]) is listed as roughly 85%; in series [5] (24 hours) it was roughly 73%. Further, in [6], the “content of the initial retinoic acid in the solution” value is reported as “around 78%”. In addition, the “degradation in UV light” value in [8] is reported as “rapidly degraded”.
